Key:
[1] = system: STING-mediated interferon (IFN) signal reporter gene in THP1-Blue™ ISG cells; test: STING-mediated interferon (IFN) signal SEAP reporter gene assay in THP1-Blue ISG cells; format: cell-based, human; details: for EC50: 16 h incubation, SEAP reporter read at OD620nm; for Emax (OD620nm): highest OD620nm value generated by stimulation of the compound, 16 h; for agonistic effect on the STING-mediated Interferon (IFN) signal pathway: result in words
Source text: In this experiment, the activity of the SEAP (secreted embryonic alkaline phosphatase) reporter gene regulated by the IFN regulatory factor (interferon regulatory factor) was detected in the THP1-Blue™ ISG cells (InvivoGen) to evaluate the agonistic effect of the compounds to be tested on the STING-mediated IFN signal pathway at the cellular level.
The THP1-Blue™ ISG cells (InvivoGen) in the logarithmic phase were centrifuged, and resuspended in a cell culture solution to a density of 2×10^6 cells/ml. The cell suspension was inoculated in a 96-well cell culture plate (Corning) at 50 μL/well. The mother liquor of the compound to be tested was gradiently diluted with a cell culture solution to obtain a 2× working concentration diluted solution (control compounds 1 and 2 were diluted at a 3-fold gradient: 200, 66.67, 22.22, 7.41, 2.47, 0.82, 0.27 and 0 μM; compounds 1, 2, 4, 6, 8, and 23 were diluted at a 8-fold gradient: 60, 7.5, 0.94, 0.12, 0.015, 0.0018, 0.00023 and 0 μM; and compounds 3 and 5 were diluted at a 10-fold gradient: 10, 1, 0.1, 0.01, 0.001, 0.0001, 0.00001 and 0 μM). The 2× working concentration diluted solution of the compound was added into a 96-well plate (50 μl of the culture solution containing 2% DMSO was added into the negative control well) at 50 μL/well. The culture plate was then placed in a cell incubator, and incubated for 16 h. After the cell incubation, 10 μL of the cell culture supernatant was transferred to a 96-well plate, and a QUANTI-Blue (InvivoGen) solution was added at 90 μL/well. The cells were incubated at 37° C. for 3 h. The absorbance at 620 nm (OD620nm) was read with a microplate reader.
In the table, EC50 refers to the concentration of a compound when ODM620nm value generated by stimulation of the compound reaches half of Emax; and Emax refers to the highest OD620nm value generated by stimulation of the compound.

[2] = system: STING and its downstream proteins TBK1 and IRF3 in THP-1 cells; test: Western blotting of phosphorylation of STING signal pathway proteins in human THP-1 cells; format: cell-based; details: 3 hours, protein blotting, FIGS. 1-5, result in words
Source text: In this experiment, the changes in the phosphorylation levels of STING and its downstream proteins TBK1 (TANK-binding kinase 1) and IRF3 (interferon regulatory factor 3) were detected by protein blotting to evaluate the agonistic effect of the test compounds on the STING signal pathway at the cellular level.
The THP-1 cells in the logarithmic phase were centrifuged, and resuspended in a cell culture solution to a density of […]. The cell suspension was inoculated into a 12-well cell culture plate (Corning) at 0.5 mL/well. The compound to be tested was diluted with a cell culture solution to 2× working solution concentration (control compounds 1 and 2: 60 μM; compounds 1 and 3: 0.6 μM, 6 μM, and 60 μM; compounds 2, 4, 6 and 8: 6 μM, 20 μM, and 60 μM). 0.5 mL of the diluted solution of the compound was added into a 12-well plate (500 μl of the culture solution containing 2% DMSO was added into the negative control well), and the plate was incubated in a cell incubator for 3 hours. After the incubation, the cells were collected by centrifugation, lysed with 60 μL cell lysis buffer (CST) for 30 minutes, and centrifuged at 12,000 rpm for 15 minutes. The supernatant was collected to determine the protein concentration, and then an appropriate amount of 5× protein loading buffer was added. The mixture was heated at 95° C. for 10 minutes to prepare a protein electrophoresis sample. Finally protein blotting was performed to detect the phosphorylation level of the corresponding protein. The primary antibodies used in the protein blotting were purchased from CST: STING (D2P2F) rabbit mAb, Phospho-STING (Ser366) rabbit mAb, Phospho-IRF3 (Ser396) (D601M) rabbit mAb, IRF3 (D83B9) rabbit mAb, TBK1/NAK (D1B4) rabbit mAb, Phospho-TBK1/NAK (Ser172) (D52C2) XP® rabbit mAb, and GAPDH (D16H11) rabbit mAb; and the secondary antibody horseradish peroxidase-conjugated goat anti-rabbit IgG (H+L) was purchased from Zsgb-bio.

[3] = system: STING pathway cytokine mIFN-β in mouse Raw264.7 cells; test: ELISA of STING pathway cytokine mIFN-β expression in mouse Raw264.7 cells; format: cell-based; details: 6 h, ELISA; for Emax: highest expression of mIFN-β; for EC50: mIFN-β expression
Source text: In this experiment, the expression of STING signal pathway cytokine mIFN-β was detected in Raw264.7 cells (Nanjing Cobioer) by the ELISA method, so as to evaluate the agonistic effect of the compound to be tested on the expression of STING pathway cytokine mIFN-β at the cellular level.
Raw264.7 cells (Nanjing Cobioer) in the logarithmic phase were centrifuged, and resuspended in a cell culture solution to a density of 1.6×10^6 cells/ml. The cell suspension was inoculated into a 24-well cell culture plate (Corning) at 250 μL/well. The mother liquor of the compound to be tested was gradiently diluted with a cell culture solution to obtain a 2× working concentration diluted solution (control compound 1 was diluted at a 3-fold gradient: 200, 66.67, 22.22, 7.41, 2.47, 0.82, 0.27 and 0 μM; control compound 2 was diluted at a 2-fold gradient: 200, 100, 50, 25, 12.5, 6.25, 3.125 and 0 μM; and compounds 4, 6 and 8 were diluted at a 4-fold gradient: 200, 50, 12.5, 3.13, 0.78, 0.20, 0.049 and 0 μM). The 2× working concentration diluted solution of the compound was added into a 24-well plate (250 μl of the culture solution containing 2% DMSO was added into the negative control well) at 250 μL/well. The culture plate was then placed in a cell incubator, and incubated for 6 h. After the cell incubation, the supernatant was collected by centrifugation at 300 g×5 min, and the mIFN-β content (pg/ml) in the cell culture supernatant was detected according to the operating instructions of the VeriKinem Mouse IFN Beta ELISA Kit from PBL (obtained by conversion of the OD450 nm absorbance-mIFN-β standard concentration standard curve and the OD450 nm absorbance value read by the microplate reader). EC50 was calculated through log(agonist) vs. response—Variable slope fitting by the Graphpad Prism software, and the experimental results are shown in Table 3.
In the table, EC50 refers to the concentration of a compound when the expression of mIFN-β generated by stimulation of the compound reaches half of Emax; and Emax refers to the highest expression of mIFN-β generated by stimulation of the compound.

[4] = system: STING pathway cytokine hIFN-β in human THP-1 cells; test: ELISA of STING pathway cytokine hIFN-β expression in human THP-1 cells; format: cell-based; details: 8 hours, ELISA; for EC50: hIFN-β expression; for Emax: highest expression of hIFN-β
Source text: In this experiment, the expression of STING signal pathway cytokine hIFN-β was detected in THP1 cells (Nanjing Cobioer) by the ELISA method, so as to evaluate the agonistic effect of the compounds to be tested on the expression of STING pathway cytokine hIFN-β at the cellular level.
THP1 cells (Nanjing Cobioer) in the logarithmic phase were centrifuged, and resuspended in a cell culture solution to a density of 8×10^6 cells/ml. The cell suspension was inoculated into a 24-well cell culture plate (Corning) at 250 μL/well.
The mother liquor of the compound to be tested was diluted with a cell culture solution to obtain a 2× working concentration diluted solution (control compounds 1 and 2 were diluted at a 2-fold gradient: 200, 100, 50, 25, 12.5, 6.25, 3.125, 1.5625 and 0 μM; and compounds 4, 6, and 8 were diluted at a 3-fold gradient: 200, 66.67, 22.22, 7.41, 2.47, 0.82, 0.27, 0.091 and 0 μM). The 2× working concentration diluted solution of the compound was added into 24-well plate (250 μl of the culture solution containing 2% DMSO was added into the negative control well) at 250 μL/well. The culture plate was placed in a cell culture incubator, and incubated for 8 hours. After the cell incubation, the supernatant was collected by centrifugation at 300 g×5 min, and the hIFN-β content (pg/ml) in the cell culture supernatant was detected according to the operating instructions of the VeriKine Human […] ELISA kit from PBL (obtained by conversion of the […] absorbance-hIFN-β standard concentration standard curve and the OD450 nm absorbance value read by the microplate reader). […] was calculated through log(agonist) vs. response—Variable slope fitting by the Graphpad Prism software, and the experimental results are shown in Table 2.
In the table, EC50 refers to the concentration of a compound when the expression of hIFN-β generated by stimulation of the compound reaches half of Emax and Emax refers to the highest expression of hIFN-β generated by stimulation of the compound.

hSTING protein = biological target: T1, hSTING protein (Homo sapiens, UniProt Q86WV6); test: Human STING binding kit (HTRF) competitive binding assay
T1 construct: purchased Cisbio
T1 sequence (Q86WV6 whole entry H232R): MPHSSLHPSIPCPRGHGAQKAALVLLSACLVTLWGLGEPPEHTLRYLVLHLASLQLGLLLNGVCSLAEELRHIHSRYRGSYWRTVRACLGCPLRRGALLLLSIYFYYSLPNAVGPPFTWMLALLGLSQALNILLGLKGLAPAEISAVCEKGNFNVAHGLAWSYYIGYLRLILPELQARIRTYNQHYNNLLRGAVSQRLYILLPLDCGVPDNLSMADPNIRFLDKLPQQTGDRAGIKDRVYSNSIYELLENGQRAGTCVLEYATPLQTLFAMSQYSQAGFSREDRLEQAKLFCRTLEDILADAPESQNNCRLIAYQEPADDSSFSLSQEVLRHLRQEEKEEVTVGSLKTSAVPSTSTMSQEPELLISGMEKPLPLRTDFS
Source text: In this experiment, the capability of the compound and the specific ligand (d2-STING-ligand) in a Human STING binding kit from Cisbio for competitively binding to the 6×His-hSTING protein was detected using the Human STING binding kit (HTRF method), so as to evaluate the binding affinity between the compound to be tested and the hSTING protein.
The compound was gradiently diluted with a dilution buffer in the Human STING binding kit (the diluent buffer reagent) to obtain a 4× working concentration diluted solution. […] The 6×His-hSTING protein (50× in the mother liquor) was diluted to 1× with the detection buffer in the Human STING binding kit (the detection buffer reagent). 5 μl of the diluted solution was added into the corresponding wells of a 384-well plate, and the well with no protein and no compound was set as a negative control well (min), while the well with the protein and no compound was set as a positive control well (max). The d2-STING-ligand and Tb^3+-anti-6×His-antibody (both 50× in the mother liquor) were diluted to 1× with the detection buffer in the Human STING binding kit (the detection buffer reagent), and mixed uniformly at a ratio of 1:1. 10 μl of the mixed solution was added to the corresponding wells of a 384-well plate. The plate was sealed and incubated at room temperature (25° C.) for 3 h. A BMG microplate reader was used to read HTRF, and the ratio was calculated according to the following formula: Ratio=signal665nm/signal620nm×10000. […] IC50 was calculated through log(inhibitor) vs. response—Variable slope fitting by the Graphpad Prism software.

Compound	EC50 ([1]; Homo sapiens) [µM]	Ki (hSTING protein; calculated as Ki=1/2*IC50 per kit instructions) [µM]	IC50 (hSTING protein; competition with d2-STING-ligand for 6×His-hSTING, HTRF, 3 h at 25° C.) [µM]	Emax (OD620nm) [1] [OD620nm]	agonistic effect on the STING-mediated Interferon (IFN) signal pathway [1]	agonistic effect on the phosphorylation levels of STING, TBK1 and IRF3 [2]	EC50 [1] [µM]	Emax [3] [pg/mL]	EC50 [3] [µM]	EC50 [4] [µM]	Emax [4] [pg/mL]
CCOC(=O)CCC(=O)c1cc2cc(OC)c(OCCCOc3cc4sc(C(=O)N(C)CCC(=O)OCC)cc4cc3OC)cc2s1 [Compound 1, ethyl 4-(6-(3-((2-((3-ethoxy-3-oxopropyl)(methyl)carbamoyl)-5-methoxybenzo[b]thiophen-6-yl)oxy)propoxy)-5-methoxybenzo[b]thiophen-2-yl)-4-oxobutyrate]	0.00057			1.54	strong agonistic effects	strong agonistic effects					
CCOC(=O)CCC(=O)c1cc2cc(OC)c(OCCCOc3cc4cc(C(=O)N(C)CCC(=O)OCC)sc4cc3OC)cc2s1 [Compound 3]				1.92	strong agonistic effects	strong agonistic effects	0.00358				
Nc1ncnc2c1ncn2[C@@H]1O[C@@H]2COP(=O)([S-])O[C@@H]3[C@H](O)[C@@H](COP([O-])(=S)O[C@H]2[C@H]1O)O[C@H]3n1cnc2c(N)ncnc21.[Na+].[Na+] (stereo partly shown) [Control Compound 1, ADU-S100, reference compound]				2.03			3.88	1248.94	2.74	14	1476.6

Further lines, with some results ahead:

EC50 ([1]; Homo sapiens) [µM]	Ki (hSTING protein; calculated as Ki=1/2*IC50 per kit instructions) [µM]	IC50 (hSTING protein; competition with d2-STING-ligand for 6×His-hSTING, HTRF, 3 h at 25° C.) [µM]	Compound	Emax (OD620nm) [1] [OD620nm]	agonistic effect on the STING-mediated Interferon (IFN) signal pathway [1]	agonistic effect on the phosphorylation levels of STING, TBK1 and IRF3 [2]	EC50 [1] [µM]	Emax [3] [pg/mL]	EC50 [3] [µM]	EC50 [4] [µM]	Emax [4] [pg/mL]
0.0014			CCOC(=O)CCC(=O)c1cc2cc(OCCCOc3cc4sc(C(=O)N(C)CCC(=O)OCC)cc4cc3OC)c(OC)cc2s1 [Compound 5, ethyl 4-(5-(3-((2-((3-ethoxy-3-oxopropyl)(methyl)carbamoyl)-5-methoxybenzo[b]thiophen-6-yl)oxy)propoxy)-6-methoxybenzo[b]thiophen-2-yl)-4-oxobutyrate]	1.94	strong agonistic effects						
0.974			CCOC(=O)CCC(=O)c1cc2cc(OCCCOc3cc4cc(C(=O)N(C)CCCOC)sc4cc3OC)c(OC)cc2s1 [Compound 23, ethyl 4-(6-methoxy-5-(3-((6-methoxy-2-((3-methoxypropyl)(methyl)carbamoyl)benzo[b]thiophen-5-yl)oxy)propoxy)benzo[b]thiophen-2-yl)-4-oxobutyrate]	1.74	strong agonistic effects						
4.95	1.89	3.78	COc1cc2cc(C(=O)CCC(=O)O)sc2cc1OC [Control Compound 2, reference compound]	1.49				1106.15	24.6	16.8	1373.9
